# Assay results published in patent US20260158148A1, “PRODRUG INTENDED FOR THE TREATMENT OF BACTERIAL […] TO A[…] THE BETA-LACTAM FAMILY” (Osta Therapeutics, priority 2022, published 2026).
# Test system: beta-lactamase
# Test: In-vitro cleavage of the OSTA-1 prodrug by beta-lactamase (release of trans-cinnamaldehyde monitored by UV absorption at 285 nm)
# Type: biochemical
# Experimental: Cleavage of the OSTA-1 prodrug was tested in vitro by contact with a beta-lactamase in saline aqueous media.
# The cleavage test is performed in physiological saline buffer (Phosphate Buffer Saline, PBS) at pH 7.0. The OSTA-1 molecule is added at a concentration of 100 microM, along with commercial beta-lactamase at a concentration of 1 unit per mL. Incubation is carried out at 37° C. The appearance of free trans-cinnamaldehyde in the medium is then monitored by UV absorption at 285 nm.
# The release of the active ingredient, in this case trans-cinnamaldehyde, was monitored by UV absorption at 285 nm. The progress of the release of the prodrug molecule's active ingredient (100 microM) was observed, in the presence and absence of beta-lactamase.
structure (smiles),measurement,setting,value
COC(/C=C/c1ccccc1)N(C)C(=O)OCC1=C(C(=O)O)N2C(=O)[C@@H](NC(=O)Cc3cccs3)[C@H]2SC1 (stereo partly drawn) [OSTA-1],cleavability by beta-lactamase (conclusion),"in vitro, saline aqueous media",cleavable by beta-lactamase and releases the active ingredient
same,spontaneous release of the active ingredient in the absence of beta-lactamase,"prodrug 100 microM, PBS pH 7.0, 37° C., no beta-lactamase, UV absorption at 285 nm",no spontaneous release
same,release of the active ingredient (trans-cinnamaldehyde) in the presence of beta-lactamase,"prodrug 100 microM, commercial beta-lactamase 1 unit per mL, PBS pH 7.0, 37° C., UV absorption at 285 nm, after two hours",released in significant quantities
